For series [1], the system named is 3T3-L1. As to the kind of experiment: Anti-adipogenic activity in mouse 3T3-L1 cells at 20 uM relative to control. Format: functional.
In series [2] the test system is 3T3-L1. The series is described as follows: Cytotoxicity against mouse 3T3-L1 cells assessed as cell viability at 20 uM incubated for 48 hrs by MTT assay. The series is classed as toxicity, cell-based. Conditions: 3t3-l1, 48 h. (In general: Tetrazolium assays rely on reduction of a dye to a coloured formazan, in cell work by metabolically active cells.)
Series [3] concerns 3T3-L1. The series is described as follows: Anti-adipogenic activity in MDI-induced mouse 3T3-L1 cells assessed as suppression of adipogenesis at 0.3 uM by oil red O staining based analysis. Format: functional, cell-based. Conditions: time 72.0 hrs.
Series [4] deals with 3T3-L1. As to the kind of experiment: Cytotoxicity against mouse 3T3-L1 cells assessed as cell viability at 30 uM incubated for 48 hrs by MTT assay. Format: toxicity, cell-based. The note with it: 3t3-l1, 48 h.
The subject of series [5] is 3T3-L1. The series is described as follows: Anti-adipogenic activity in mouse 3T3-L1 cells assessed as suppression of adipogenesis at 30 uM measured for 72 hrs by oil red O staining based analysis. Format: functional, cell-based.
Series [6] concerns 3T3-L1. As to the kind of experiment: Anti-adipogenic activity in mouse 3T3-L1 cells assessed as suppression of adipogenesis at 20 uM measured for 72 hrs by oil red O staining based analysis. The series is classed as functional.
The subject of series [7] is 3T3-L1. The series is described as follows: Anti-adipogenic activity in mouse 3T3-L1 cells assessed as reduction in lipid accumulation at 10 uM by microscopic analysis. Format: functional, cell-based.

Calls of active or inactive are those of the source. The rule behind the calls is not given here.

On to `Cc1ccc(/C=C/c2ccc(-c3cc(C(=O)O)c4cc(C)ccc4n3)cc2)cc1`, for which the outcome in the series with 3T3-L1 [1] (time 72.0 hrs) was inactive.

`COC(=O)c1cc(-c2ccc(/C=C/c3ccc(C)cc3)cc2)nc2ccc(F)cc12`: the Activity entry in the series on 3T3-L1 [2] is given as “Toxic”. For the same molecule, the result in the series with 3T3-L1 [1] (time 72.0 hrs) was inactive.

In the series with 3T3-L1 [1] (time 72 hrs), `Cc1ccc(C#Cc2ccc(-c3cc(C(=O)O)c4ccccc4n3)cc2)cc1` registered an Activity of 74%.

Turning to `CCOC(=O)c1cc(-c2ccc(/C=C/c3ccc(C)cc3)cc2)nc2ccc(F)cc12`, in the series on 3T3-L1 [2], the Activity entry was “Toxic”. Further, the outcome in the series with 3T3-L1 [1] (time 72.0 hrs) was inactive.

For `Cc1ccc(/C=C/c2ccc(-c3cc(C(=O)O)c4ccccc4n3)cc2)cc1`, the outcome in the series with 3T3-L1 [3] was inactive. Besides, the Activity result in the series on 3T3-L1 [4] is reported as “Toxic”; in the series on 3T3-L1 [2], “Non-toxic”; in the series on 3T3-L1 [1] (time 72 hrs), 68%; with 3T3-L1 [6], 70%. In addition, the outcome in the series with 3T3-L1 [5] was Active.

For the molecule `O=C(O)c1cc(-c2ccc(C#Cc3ccccc3)cc2)nc2ccccc12`, in the series with 3T3-L1 [1] (time 72.0 hrs), the result was inactive.

For `COc1ccc2nc(-c3ccc(/C=C/c4ccc(C)cc4)cc3)cc(C(=O)O)c2c1`, the Activity entry was “Non-toxic” in the series on 3T3-L1 [2] and 70% in the series on 3T3-L1 [6]. Moreover, the outcome in the series with 3T3-L1 [1] (time 72.0 hrs) was inactive.

For `CCCCCCCCOC(=O)c1cc(-c2ccc(/C=C/c3ccc(C)cc3)cc2)nc2ccc(F)cc12`, in the series with 3T3-L1 [2], the Activity result was “Toxic”. In the series on 3T3-L1 [1] (time 72.0 hrs), the outcome was inactive.

Take `O=C(O)c1cc(-c2ccc(/C=C/c3ccccn3)cc2)nc2ccccc12`: in the series with 3T3-L1 [1] (time 72.0 hrs), the outcome was inactive.

`CCCCOC(=O)c1cc(-c2ccc(/C=C/c3ccc(C)cc3)cc2)nc2ccc(F)cc12`: the Activity entry in the series with 3T3-L1 [2] was “Toxic”. The outcome with 3T3-L1 [1] (time 72.0 hrs) was inactive.

For `CC(C)(C)c1ccc(C#Cc2ccc(-c3cc(C(=O)O)c4ccccc4n3)cc2)cc1`, in the series with 3T3-L1 [3], the result was Active. Besides, the Activity result is on record as “Toxic” in the series on 3T3-L1 [4], “Non-toxic” with 3T3-L1 [2], 69% in the series on 3T3-L1 [1] (time 72 hrs) and 70% in the series on 3T3-L1 [6].

Consider `Cc1cccc(C#Cc2ccc(-c3cc(C(=O)O)c4ccccc4n3)cc2)c1`, for which the Activity result in the series on 3T3-L1 [2] was “Toxic”; in the series with 3T3-L1 [1] (time 72 hrs), 68%.

`CC(C)(C)c1ccc(/C=C/c2ccc(-c3cc(C(=O)O)c4ccccc4n3)cc2)cc1`: the results for the Activity result with 3T3-L1 [2], in the series on 3T3-L1 [1] (time 72 hrs) and in the series on 3T3-L1 [6] were “Non-toxic”, 67% and 70%, respectively.

Consider `CCCCCOC(=O)c1cc(-c2ccc(/C=C/c3ccc(C)cc3)cc2)nc2ccc(F)cc12`, for which, in the series with 3T3-L1 [2], the Activity result was “Toxic”. Besides, in the series on 3T3-L1 [1] (time 72.0 hrs), the result was inactive.

Consider `Cc1ccc(/C=C/c2ccc(-c3cc(C(=O)O)c4cc(OC(F)(F)F)ccc4n3)cc2)cc1`, for which the result with 3T3-L1 [1] (time 72.0 hrs) was inactive.

`CCCCCCOC(=O)c1cc(-c2ccc(/C=C/c3ccc(C)cc3)cc2)nc2ccc(F)cc12`: the Activity result in the series on 3T3-L1 [2] is reported as “Toxic”. For the same molecule, in the series with 3T3-L1 [1] (time 72.0 hrs), the result was inactive.

As for `O=C(O)c1cc(-c2ccc(/C=C/c3ccncc3)cc2)nc2ccccc12`, in the series on 3T3-L1 [3], the result was Active. The Activity entry in the series on 3T3-L1 [4] was “Toxic”. The outcome with 3T3-L1 [1] (time 72.0 hrs) was inactive.

In the case of `O=C(O)c1ccc(/C=C/c2ccc(-c3cc(C(=O)O)c4ccccc4n3)cc2)cc1`, the Activity entry with 3T3-L1 [2] was “Toxic”. Besides, the outcome with 3T3-L1 [1] (time 72.0 hrs) was inactive.

Turning to `O=C(O)c1cc(-c2ccc(/C=C/c3ccc(Cl)cc3)cc2)nc2ccccc12`, the outcome with 3T3-L1 [1] (time 72.0 hrs) was inactive.

For `Cc1ccc(/C=C/c2ccc(-c3cc(C(=O)O)c4cc(C)cc(Cl)c4n3)cc2)cc1`, in the series with 3T3-L1 [1] (time 72.0 hrs), the result was inactive.

Consider `Cc1ccc(/C=C/c2ccc(-c3cc(C(=O)O)c4cc(Cl)ccc4n3)cc2)cc1`, for which the Activity result was “Toxic” in the series on 3T3-L1 [2] and 76% in the series on 3T3-L1 [1] (time 72 hrs).

Take `O=C(O)c1cc(-c2ccc(/C=C/c3ccc4ccccc4c3)cc2)nc2ccccc12`: in the series on 3T3-L1 [1] (time 72.0 hrs), the result was inactive.

Turning to `COc1ccc(C#Cc2ccc(-c3cc(C(=O)O)c4ccccc4n3)cc2)cc1`, the Activity entry in the series on 3T3-L1 [2] was “Toxic”; in the series with 3T3-L1 [1] (time 72 hrs), 69%.

For the molecule `Cc1ccc(/C=C/c2ccc(-c3cc(C(=O)OC(C)C)c4cc(F)ccc4n3)cc2)cc1`, in the series on 3T3-L1 [2], the Activity entry was “Toxic”. In addition, in the series on 3T3-L1 [1] (time 72.0 hrs), the outcome was inactive.

As to `Cc1ccc(/C=C/c2ccc(-c3cc(C(=O)O)c4cccc(Cl)c4n3)cc2)cc1`, the outcome with 3T3-L1 [1] (time 72.0 hrs) was inactive.

Regarding `CCCOC(=O)c1cc(-c2ccc(/C=C/c3ccc(C)cc3)cc2)nc2ccc(F)cc12`, the Activity entry with 3T3-L1 [2] is listed as “Toxic”. Further, the outcome in the series with 3T3-L1 [1] (time 72.0 hrs) was inactive.

As to `Cc1cc([N+](=O)[O-])ccc1NS(=O)(=O)c1cc(Cl)ccc1Cl`, the result with 3T3-L1 [7] was Active.

Consider `O=C(O)c1cc(-c2ccc(/C=C/c3ccccc3)cc2)nc2ccccc12`, for which the outcome in the series on 3T3-L1 [1] (time 72.0 hrs) was inactive.

For `O=C(O)c1cc(-c2ccc(C#Cc3ccc(F)cc3)cc2)nc2ccccc12`, in the series on 3T3-L1 [2], the Activity entry was “Toxic”. Moreover, the result with 3T3-L1 [1] (time 72.0 hrs) was inactive.

Values taken from ChEMBL document CHEMBL6114991, “Design, synthesis, and biological evaluation of novel quinoline carboxylic acid based styryl/alkyne hybrid molecule as a potent anti-adipogenic and antidyslipidemic agent via activation of Wnt/β-catenin pathway” (Eur J Med Chem, 2025).
